Source: PMC5267425, “Identification of small molecule modulators of HIV-1 Tat and Rev protein accumulation” (Retrovirology, 2017)
Values joined by “and” are separate entries in the source; they are usually repeats but may differ in a detail not shown here. Identical values can stand only once.

Tested on: cellular gene expression in HeLa rtTA HIV∆Mls cells
Details: 9147791-treated cells, two replicates

`Cc1cc(NCc2cccnc2)n2ncc(-c3ccc(Cl)cc3)c2n1` [Compound 791, 3-(4-chlorophenyl)-5-methyl-N-(3-pyridinylmethyl)pyrazolo[1,5-a]pyrimidin-7-amine] was tested, and the ACER2 expression level (gene ACER2) was 0.80 and 0.82, the ADO expression level (gene ADO) was 10.11 and 9.67 and the AKIRIN2 expression level (gene AKIRIN2) was 37.74 and 36.76. For the same compound, the ALG5 expression level (gene ALG5) was 17.63 and 17.19, the ALKBH8 expression level (gene ALKBH8) was 2.78 and 2.65 and the ANKRD40 expression level (gene ANKRD40) was 18.60 and 17.61. For the same compound, the ANKRD50 expression level (gene ANKRD50) was 8.61 and 9.09, the AP3S2 expression level (gene AP3S2) was 6.99 and 6.84 and the ARL4D expression level (gene ARL4D) was 11.90 and 11.09. For the same compound, the ARMC10 expression level (gene ARMC10) was 25.33 and 26.90, the ARSJ expression level (gene ARSJ) was 5.86 and 6.05 and the ATG4B expression level (gene ATG4B) was 24.43 and 25.27. For the same compound, the ATP6V1B2 expression level (gene ATP6V1B2) was 44.15 and 44.20, the AUP1 expression level (gene AUP1) was 93.65 and 90.36 and the AVL9 expression level (gene AVL9) was 14.40 and 14.91. The AXIN1 expression level (gene AXIN1) was 20.61 and 19.36, the B4GALT5 expression level (gene B4GALT5) was 32.71 and 30.46 and the BCL7A expression level (gene BCL7A) was 4.81 and 5.05. The BICD1 expression level (gene BICD1) was 5.82 and 5.80, the BIVM expression level (gene BIVM) was 26.38 and 27.51 and the BMP2K expression level (gene BMP2K) was 8.20 and 7.95. The C1orf27 expression level (gene C1orf27) was 10.72 and 10.90, the C1orf103 expression level (gene C1orf103) was 11.43 and 11.72 and the C1orf131 expression level (gene C1orf131) was 8.80 and 9.06. For the same compound, the C2orf49 expression level (gene C2orf49) was 7.96 and 8.04, the C3orf19 expression level (gene C3orf19) was 6.85 and 6.46 and the C4orf27 expression level (gene C4orf27) was 19.50 and 20.20. The C5orf37 expression level (gene C5orf37) was 8.35 and 8.03, the C5orf45 expression level (gene C5orf45) was 14.96 and 13.97 and the C5orf51 expression level (gene C5orf51) was 28.44 and 30.27. The C7orf23 expression level (gene C7orf23) was 28.60 and 29.63, the C7orf25 expression level (gene C7orf25) was 13.24 and 13.90 and the C9orf6 expression level (gene C9orf6) was 11.84 and 11.91. For the same compound, the C9orf46 expression level (gene C9orf46) was 19.83 and 20.30, the C11orf57 expression level (gene C11orf57) was 12.07 and 11.50 and the C11orf73 expression level (gene C11orf73) was 35.63 and 36.75. For the same compound, the C12orf35 expression level (gene C12orf35) was 5.77 and 5.55, the C12orf65 expression level (gene C12orf65) was 14.51 and 14.73 and the C12orf73 expression level (gene C12orf73) was 7.32 and 7.68. The C13orf23 expression level (gene C13orf23) was 12.32 and 12.36, the C16orf72 expression level (gene C16orf72) was 10.69 and 10.57 and the C17orf80 expression level (gene C17orf80) was 10.34 and 10.65. For the same compound, the C18orf25 expression level (gene C18orf25) was 6.56 and 6.86, the C18orf45 expression level (gene C18orf45) was 4.86 and 5.04 and the C19orf55 expression level (gene C19orf55) was 5.99 and 6.29. The CCBL2 expression level (gene CCBL2) was 14.25 and 13.62, the CCDC25 expression level (gene CCDC25) was 31.76 and 30.83 and the CCDC92 expression level (gene CCDC92) was 12.03 and 11.64. For the same compound, the CCNJ expression level (gene CCNJ) was 2.94 and 2.91, the CDK4 expression level (gene CDK4) was 162.09 and 164.93 and the CDK17 expression level (gene CDK17) was 8.04 and 8.39. The CHCHD4 expression level (gene CHCHD4) was 19.84 and 19.36, the CHN2 expression level (gene CHN2) was 1.42 and 1.50 and the CLCN2 expression level (gene CLCN2) was 5.16 and 5.28. For the same compound, the COG1 expression level (gene COG1) was 10.28 and 10.86, the COX19 expression level (gene COX19) was 6.58 and 7.00 and the CREB1 expression level (gene CREB1) was 5.06 and 4.95. For the same compound, the CSGALNACT2 expression level (gene CSGALNACT2) was 10.98 and 11.46, the CSNK2A1 expression level (gene CSNK2A1) was 37.86 and 40.21 and the CSRNP2 expression level (gene CSRNP2) was 6.76 and 6.32. For the same compound, the CUEDC2 expression level (gene CUEDC2) was 42.63 and 44.50, the DCI expression level (gene DCI) was 60.10 and 62.67 and the DCLRE1A expression level (gene DCLRE1A) was 9.19 and 9.37. The DDB2 expression level (gene DDB2) was 110.42 and 109.59, the DDX50 expression level (gene DDX50) was 29.08 and 28.13 and the DENND4B expression level (gene DENND4B) was 17.80 and 17.11. For the same compound, the DET1 expression level (gene DET1) was 3.28 and 3.58, the DGKQ expression level (gene DGKQ) was 6.10 and 5.97 and the DLG4 expression level (gene DLG4) was 6.58 and 6.74. For the same compound, the DNAJB14 expression level (gene DNAJB14) was 5.32 and 5.63, the DNASE2 expression level (gene DNASE2) was 67.31 and 73.16 and the DYM expression level (gene DYM) was 17.92 and 17.95. The EDEM1 expression level (gene EDEM1) was 13.02 and 13.54, the EIF2S3 expression level (gene EIF2S3) was 260.44 and 268.10 and the EPRS expression level (gene EPRS) was 87.21 and 89.05. The ESCO1 expression level (gene ESCO1) was 5.82 and 5.63, the ESRRA expression level (gene ESRRA) was 58.60 and 54.56 and the ETV6 expression level (gene ETV6) was 3.21 and 3.17. The FAIM3 expression level (gene FAIM3) was 2.34 and 2.22, the FAM83G expression level (gene FAM83G) was 15.73 and 15.43 and the FAM102A expression level (gene FAM102A) was 15.44 and 14.97. For the same compound, the FAM107B expression level (gene FAM107B) was 26.06 and 26.60, the FAM119B expression level (gene FAM119B) was 5.44 and 5.43 and the FAM176B expression level (gene FAM176B) was 1.37 and 1.42. For the same compound, the FAM179B expression level (gene FAM179B) was 3.35 and 3.46, the FAR1 expression level (gene FAR1) was 21.55 and 22.22 and the FBXO22 expression level (gene FBXO22) was 18.71 and 19.58. The FBXW4 expression level (gene FBXW4) was 11.10 and 10.83, the FEM1C expression level (gene FEM1C) was 5.87 and 6.20 and the FEZ2 expression level (gene FEZ2) was 28.49 and 26.84. The FLCN expression level (gene FLCN) was 15.28 and 15.93, the FLYWCH1 expression level (gene FLYWCH1) was 20.36 and 21.57 and the FOSL2 expression level (gene FOSL2) was 35.73 and 35.26. The FOXF1 expression level (gene FOXF1) was 7.56 and 7.55, the FOXJ2 expression level (gene FOXJ2) was 9.27 and 9.86 and the FXYD5 expression level (gene FXYD5) was 112.40 and 117.32. For the same compound, the GATA5 expression level (gene GATA5) was 1.79 and 1.70, the GJD3 expression level (gene GJD3) was 4.71 and 4.56 and the GNA13 expression level (gene GNA13) was 17.15 and 16.92. The GORAB expression level (gene GORAB) was 7.75 and 7.67, the GOSR1 expression level (gene GOSR1) was 11.79 and 11.45 and the GPC5 expression level (gene GPC5) was 9.86 and 10.11. For the same compound, the GPD1L expression level (gene GPD1L) was 13.45 and 13.69, the GTF2H3 expression level (gene GTF2H3) was 21.55 and 22.21 and the HAUS3 expression level (gene HAUS3) was 7.54 and 8.11. For the same compound, the HAUS4 expression level (gene HAUS4) was 59.72 and 63.77, the HDHD2 expression level (gene HDHD2) was 9.17 and 8.71 and the HECTD1 expression level (gene HECTD1) was 31.75 and 32.77. The HIF1A expression level (gene HIF1A) was 79.76 and 77.72, the HPS3 expression level (gene HPS3) was 15.09 and 14.61 and the HRSP12 expression level (gene HRSP12) was 13.91 and 14.84. For the same compound, the HSD17B1 expression level (gene HSD17B1) was 4.57 and 4.64, the IFNGR1 expression level (gene IFNGR1) was 18.57 and 18.18 and the INPP1 expression level (gene INPP1) was 8.36 and 7.77. The IPO13 expression level (gene IPO13) was 15.99 and 16.09, the IQCB1 expression level (gene IQCB1) was 10.15 and 11.00 and the KCTD1 expression level (gene KCTD1) was 4.57 and 4.58. For the same compound, the KCTD13 expression level (gene KCTD13) was 10.32 and 11.29, the KIAA0232 expression level (gene KIAA0232) was 9.33 and 9.86 and the KIAA0649 expression level (gene KIAA0649) was 25.63 and 26.16. For the same compound, the KIAA0753 expression level (gene KIAA0753) was 6.64 and 6.86, the KRR1 expression level (gene KRR1) was 19.83 and 18.92 and the LARS expression level (gene LARS) was 72.55 and 69.28. The LGTN expression level (gene LGTN) was 39.45 and 39.33, the LRP5L expression level (gene LRP5L) was 3.26 and 3.08 and the LRPPRC expression level (gene LRPPRC) was 66.45 and 68.25.
